Patent US9139532B2, “Pyrazolyl guanidine F1F0-atpase inhibitors and therapeutic uses thereof” (Lycera Corporation, priority 2010, dated 2015)
Read-outs that look alike come from different tables or passages of the source.

What was measured:
[1] = target: T1, F1F0-ATPase (Bos taurus, UniProt P13621); experiment: Inhibition of F1F0-ATPase activity in synthesizing ATP; type: biochemical; conditions: inhibition of ATP synthesis by F1F0-ATPase; read-out: ATP Syn IC50
T1 construct: from tissue

[2] = system: Ramos cells; experiment: Cytotoxicity in Ramos cells; type: cell-based; conditions: cytotoxicity in Ramos cells, read-out: Ramos Cell EC50

| Structure (SMILES) | IC50 [1] | EC50 ([2]; Homo sapiens) | EC50 [2] |
| --- | --- | --- | --- |
| CC1(NC(=NC(=O)c2ccc(F)c(F)c2)Nc2cc(-c3cc(F)cc(Cl)c3)n[nH]2)CCCC1 [Compound A-288] | < 10 µM | < 10 µM |  |
| O=C(/N=C(\Nc1cc(-c2cc(F)cc(Cl)c2)n[nH]1)NC1CCCC1)c1ccc(F)c(F)c1 [Compound A-289] | < 10 µM |  | < 10 µM |
| CC(C)(C)N/C(=N/C(=O)c1ccc(F)c(F)c1)Nc1cc(-c2cc(F)cc(Cl)c2)n[nH]1 [Compound A-290] | < 10 µM |  | < 10 µM |
| O=C(/N=C(\Nc1cc(-c2cc(F)cc(F)c2)n[nH]1)NC1CCCC1)c1ccc(C(F)(F)F)cc1 [Compound A-291] | < 10 µM |  | < 10 µM |
| O=C(N=C(NCc1ccc(F)cc1Cl)Nc1cc(-c2cc(F)cc(F)c2)n[nH]1)c1ccc(C(F)(F)F)cc1 [Compound A-292] | < 10 µM | < 10 µM |  |
| CC(C)CN/C(=N/C(=O)c1ccc(C(F)(F)F)cc1)Nc1cc(-c2cc(F)cc(F)c2)n[nH]1 [Compound A-293] | < 10 µM |  | < 10 µM |
| O=C(N=C(Nc1cc(-c2cc(F)cc(F)c2)n[nH]1)Nc1ccc(F)cc1Cl)c1ccc(C(F)(F)F)cc1 [Compound A-294] | < 10 µM | > 10 µM |  |
| CC(C)C(C)N/C(=N/C(=O)c1ccc(C(F)(F)F)cc1)Nc1cc(-c2cc(F)cc(F)c2)n[nH]1 (stereo not drawn) [Compound A-295] | < 10 µM |  | < 10 µM |
| CC(C)NC(=NC(=O)c1ccc(C(F)(F)F)cc1)Nc1cc(-c2cc(F)cc(F)c2)n[nH]1 [Compound A-296] | < 10 µM | < 10 µM |  |
| CCC(C)NC(=NC(=O)c1ccc(C(F)(F)F)cc1)Nc1cc(-c2cc(F)cc(F)c2)n[nH]1 (stereo not drawn) [Compound A-297] | < 10 µM | < 10 µM |  |
| O=C(N=C(Nc1cc(-c2cc(F)cc(F)c2)n[nH]1)NC1CCC1)c1ccc(C(F)(F)F)cc1 [Compound A-298] | < 10 µM | < 10 µM |  |
| CC(C)(C)N/C(=N/C(=O)c1ccc(C(F)(F)F)cc1)Nc1cc(-c2cc(F)cc(F)c2)n[nH]1 [Compound A-299] | < 10 µM |  | < 10 µM |
| CCC(C)CNC(=NC(=O)c1cccc(C#N)c1)Nc1cc(-c2ccc(Cl)cc2)n[nH]1 (stereo not drawn) [Compound A-300] | < 10 µM | < 10 µM |  |
| CC(C)OCCCN/C(=N/C(=O)c1cccc(C#N)c1)Nc1cc(-c2ccc(Cl)cc2)n[nH]1 [Compound A-301] | < 10 µM |  | < 10 µM |
| N#Cc1cccc(C(=O)/N=C(\Nc2cc(-c3ccc(Cl)cc3)n[nH]2)NC2CCCC2)c1 [Compound A-302] | < 10 µM |  | < 10 µM |
| CC(C)CNC(=NC(=O)c1cccc(C#N)c1)Nc1cc(-c2ccc(Cl)cc2)n[nH]1 [Compound A-303] | < 10 µM | < 10 µM |  |
| CC(C)C(C)N/C(=N/C(=O)c1cccc(C#N)c1)Nc1cc(-c2ccc(Cl)cc2)n[nH]1 (stereo not drawn) [Compound A-304] | < 10 µM |  | < 10 µM |
| CC(C)NC(=NC(=O)c1cccc(C#N)c1)Nc1cc(-c2ccc(Cl)cc2)n[nH]1 [Compound A-305] | < 10 µM | < 10 µM |  |
| CCC(C)N/C(=N/C(=O)c1cccc(C#N)c1)Nc1cc(-c2ccc(Cl)cc2)n[nH]1 (stereo not drawn) [Compound A-306] | < 10 µM |  | < 10 µM |
| N#Cc1cccc(C(=O)/N=C(\Nc2cc(-c3ccc(Cl)cc3)n[nH]2)NC2CCC2)c1 [Compound A-307] | < 10 µM |  | < 10 µM |
| CC(C)(C)N/C(=N/C(=O)c1cccc(C#N)c1)Nc1cc(-c2ccc(Cl)cc2)n[nH]1 [Compound A-308] | < 10 µM |  | < 10 µM |
| N#Cc1cccc(C(=O)/N=C(\Nc2cc(-c3cc(F)cc(F)c3)n[nH]2)NC2CCCC2)c1 [Compound A-309] | < 10 µM |  | < 10 µM |
| CC(C)CN/C(=N/C(=O)c1cccc(C#N)c1)Nc1cc(-c2cc(F)cc(F)c2)n[nH]1 [Compound A-310] | < 10 µM |  | < 10 µM |
| CC(C)C(C)N/C(=N/C(=O)c1cccc(C#N)c1)Nc1cc(-c2cc(F)cc(F)c2)n[nH]1 (stereo not drawn) [Compound A-311] | < 10 µM |  | < 10 µM |
| CC(C)N/C(=N/C(=O)c1cccc(C#N)c1)Nc1cc(-c2cc(F)cc(F)c2)n[nH]1 [Compound A-312] | < 10 µM |  | < 10 µM |
| CCC(C)NC(=NC(=O)c1cccc(C#N)c1)Nc1cc(-c2cc(F)cc(F)c2)n[nH]1 (stereo not drawn) [Compound A-313] | < 10 µM | < 10 µM |  |

| Structure (SMILES) | IC50 [1] | EC50 ([2]; Homo sapiens) | EC50 [2] |
| --- | --- | --- | --- |
| N#Cc1cccc(C(=O)/N=C(\Nc2cc(-c3cc(F)cc(F)c3)n[nH]2)NC2CCC2)c1 [Compound A-314] | < 10 µM |  | < 10 µM |
| CC(C)(C)N/C(=N/C(=O)c1cccc(C#N)c1)Nc1cc(-c2cc(F)cc(F)c2)n[nH]1 [Compound A-315] | < 10 µM |  | > 10 µM |
| Cc1ccc(-c2cc(N/C(=N\C(=O)c3ccc(F)c(F)c3)NC3CCCC3)[nH]n2)cc1F [Compound A-316] | < 10 µM |  | < 10 µM |
| Cc1ccc(-c2cc(N/C(=N\C(=O)c3ccc(F)c(F)c3)NCc3ccc(F)cc3Cl)[nH]n2)cc1F [Compound A-317] | < 10 µM |  | < 10 µM |
| Cc1ccc(-c2cc(N/C(=N\C(=O)c3ccc(F)c(F)c3)Nc3ccc(F)cc3Cl)[nH]n2)cc1F [Compound A-318] | > 10 µM |  | < 10 µM |
| Cc1ccc(-c2cc(N/C(=N\C(=O)c3ccc(F)c(F)c3)NC(C)C)[nH]n2)cc1F [Compound A-319] | < 10 µM |  | < 10 µM |
| Cc1ccc(-c2cc(N/C(=N\C(=O)c3ccc(F)c(F)c3)NC3CCC3)[nH]n2)cc1F [Compound A-320] | < 10 µM |  | < 10 µM |
| CCC(C)CN/C(=N/C(=O)c1ccc(F)c(F)c1)Nc1cc(-c2ccc(C)c(F)c2)n[nH]1 (stereo not drawn) [Compound A-321] | < 10 µM |  | < 10 µM |
| Cc1ccc(-c2cc(N/C(=N\C(=O)c3ccc(F)c(F)c3)NCCCOC(C)C)[nH]n2)cc1F [Compound A-322] | < 10 µM |  | < 10 µM |
| Cc1ccc(-c2cc(N/C(=N\C(=O)c3ccc(F)c(F)c3)NCC(C)C)[nH]n2)cc1F [Compound A-323] | < 10 µM |  | < 10 µM |
| Cc1ccc(-c2cc(N/C(=N\C(=O)c3ccc(F)c(F)c3)NC(C)C(C)C)[nH]n2)cc1F (stereo not drawn) [Compound A-324] | < 10 µM |  | < 10 µM |
| CCC(C)N/C(=N/C(=O)c1ccc(F)c(F)c1)Nc1cc(-c2ccc(C)c(F)c2)n[nH]1 (stereo not drawn) [Compound A-325] | < 10 µM |  | < 10 µM |
| Cc1ccc(-c2cc(N/C(=N\C(=O)c3ccc(C(F)(F)F)cc3)NC3CCCC3)[nH]n2)cc1F [Compound A-326] | < 10 µM |  | > 10 µM |
| Cc1ccc(-c2cc(NC(=NC(=O)c3ccc(C(F)(F)F)cc3)NCc3ccc(F)cc3Cl)[nH]n2)cc1F [Compound A-327] | > 10 µM | > 10 µM |  |
| Cc1ccc(-c2cc(N/C(=N\C(=O)c3ccc(C(F)(F)F)cc3)NC(C)C)[nH]n2)cc1F [Compound A-328] | < 10 µM |  | < 10 µM |
| Cc1ccc(-c2cc(N/C(=N\C(=O)c3ccc(C(F)(F)F)cc3)NC3CCC3)[nH]n2)cc1F [Compound A-329] | < 10 µM |  | < 10 µM |
| CCC(C)CN/C(=N/C(=O)c1ccc(C(F)(F)F)cc1)Nc1cc(-c2ccc(C)c(F)c2)n[nH]1 (stereo not drawn) [Compound A-330] | > 10 µM |  | > 10 µM |
| Cc1ccc(-c2cc(N/C(=N\C(=O)c3ccc(C(F)(F)F)cc3)NCC(C)C)[nH]n2)cc1F [Compound A-332] | < 10 µM |  | > 10 µM |
| Cc1ccc(-c2cc(N/C(=N\C(=O)c3ccc(C(F)(F)F)cc3)NC(C)C(C)C)[nH]n2)cc1F (stereo not drawn) [Compound A-333] | < 10 µM |  | > 10 µM |
| CCC(C)N/C(=N/C(=O)c1ccc(C(F)(F)F)cc1)Nc1cc(-c2ccc(C)c(F)c2)n[nH]1 (stereo not drawn) [Compound A-334] | < 10 µM |  | < 10 µM |
| CC(C)(C)c1n[nH]c(NC(=NC(=O)c2ccc(C(F)(F)F)cc2)NCc2ccc(F)cc2Cl)c1F [Compound A-335] | < 10 µM | < 10 µM |  |
| CC(C)(C)c1n[nH]c(N/C(=N\C(=O)c2ccc(C(F)(F)F)cc2)Nc2ccc(F)cc2Cl)c1F [Compound A-336] | < 10 µM |  | < 10 µM |
| CNC(=O)c1cc(NC(=NC(=O)c2ccc(C(F)(F)F)cc2)Nc2ccc(F)cc2Cl)[nH]n1 [Compound A-337] | > 10 µM | > 10 µM |  |
| COC(=O)c1cc(NC(=NC(=O)c2ccc(C(F)(F)F)cc2)NCc2ccc(F)cc2Cl)[nH]n1 [Compound A-338] | < 10 µM | < 10 µM |  |
| CC(C)(C)N/C(=N/C(=O)c1ccc(C(F)(F)F)cc1)Nc1[nH]nc(C(C)(C)C)c1F [Compound A-340] | < 10 µM |  | < 10 µM |
